Data published in ChEMBL document CHEMBL1201862, “PubChem BioAssay data set” (2004).
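Where inhibition never reached the appropriate level, the endpoint shown equals the highest concentration tested. Otherwise, values were interpolated linearly from a five-concentration, 48-hour dose response in 96-well plates. Abbreviation: GI50, concentration required for 50% inhibition of growth.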 Activity calls are given as the source filed them. Cut-off read from the data, not from the text of the source: active = GI50 up to about 1.1 µM and inactive = higher.

Key:
Assay in all cases: growth of human tumour cells (NCI), 48 h
786-0 = tested on: 786-0
A498 = tested on: A498
A549 = tested on: A549
ACHN = tested on: ACHN
CAKI-1 = tested on: CAKI-1
CCRF-CEM = tested on: CCRF-CEM
COLO 205 = tested on: COLO 205
DLD-1 = tested on: DLD-1
DMS-114 = tested on: DMS-114
DMS-273 = tested on: DMS-273
EKVX = tested on: EKVX
HCC 2998 = tested on: HCC 2998
HCT-116 = tested on: HCT-116
HCT-15 = tested on: HCT-15
HL-60 = tested on: HL-60
HOP-18 = tested on: HOP-18
HOP-62 = tested on: HOP-62
HOP-92 = tested on: HOP-92
HT-29 = tested on: HT-29
IGROV-1 = tested on: IGROV-1
K562 = tested on: K562
KM-20L2 = tested on: KM-20L2
KM12 = tested on: KM12
LOX IMVI = tested on: LOX IMVI
LXFL 529 = tested on: LXFL 529
M14 = tested on: M14
M19-MEL = tested on: M19-MEL
MOLT-4 = tested on: MOLT-4
Malme-3M = tested on: Malme-3M
NCI-H226 = tested on: NCI-H226
NCI-H23 = tested on: NCI-H23
NCI-H460 = tested on: NCI-H460
NCI-H522 = tested on: NCI-H522
OVCAR-3 = tested on: OVCAR-3
OVCAR-4 = tested on: OVCAR-4
OVCAR-5 = tested on: OVCAR-5
OVCAR-8 = tested on: OVCAR-8
RPMI-8226 = tested on: RPMI-8226
RXF 393 = tested on: RXF 393
RXF 631 = tested on: RXF 631
SF-268 = tested on: SF-268
SF-295 = tested on: SF-295
SF-539 = tested on: SF-539
SK-MEL-28 = tested on: SK-MEL-28
SK-MEL-2 = tested on: SK-MEL-2
SK-MEL-5 = tested on: SK-MEL-5
SK-OV-3 = tested on: SK-OV-3
SN12C = tested on: SN12C
SNB-19 = tested on: SNB-19
SNB-75 = tested on: SNB-75
SNB-78 = tested on: SNB-78
SR = tested on: SR
SW-620 = tested on: SW-620
TK-10 = tested on: TK-10
U-251 = tested on: U-251
UACC-257 = tested on: UACC-257
UACC-62 = tested on: UACC-62
UO-31 = tested on: UO-31
XF498 = tested on: XF498

## O=c1/c(=C/c2ccccc2[N+](=O)[O-])sc2nc3ccccc3n12
786-0
  GI50: 24.5 µM (inactive)
A498
  GI50: 17.3 µM (inactive)
A549
  GI50: 30.8 µM (inactive)
ACHN
  GI50: > 46.5 µM (inactive)
CAKI-1
  GI50: > 73.1 µM (inactive)
CCRF-CEM
  GI50: 13 µM (inactive)
COLO 205
  GI50: 26.6 µM (inactive)
DLD-1
  GI50: 27.7 µM (inactive)
DMS-114
  GI50: 16.3 µM (inactive)
DMS-273
  GI50: 20 µM (inactive)
EKVX
  GI50: > 100 µM (inactive)
HCC 2998
  GI50: 30.8 µM (inactive)
HCT-116
  GI50: 21.7 µM (inactive)
HCT-15
  GI50: 17 µM
HL-60
  GI50: 41.1 µM (inactive)
HOP-18
  GI50: 44.6 µM (inactive)
HOP-62
  GI50: 42.4 µM (inactive)
HOP-92
  GI50: 32.1 µM (inactive)
HT-29
  GI50: > 46.5 µM (inactive)
IGROV-1
  GI50: 30.5 µM (inactive)
K562
  GI50: 40.8 µM (inactive)
KM-20L2
  GI50: > 100 µM (inactive)
KM12
  GI50: 34.7 µM (inactive)
LOX IMVI
  GI50: 17.1 µM (inactive)
LXFL 529
  GI50: 33.4 µM (inactive)
M14
  GI50: 39.7 µM (inactive)
M19-MEL
  GI50: 28.6 µM (inactive)
MOLT-4
  GI50: > 46.1 µM (inactive)
Malme-3M
  GI50: 42.2 µM (inactive)
NCI-H226
  GI50: 22.9 µM (inactive)
NCI-H23
  GI50: 28.6 µM (inactive)
NCI-H460
  GI50: 37.8 µM (inactive)
NCI-H522
  GI50: 35.4 µM (inactive)
OVCAR-3
  GI50: > 31.6 µM (inactive)
OVCAR-4
  GI50: > 46.5 µM (inactive)
OVCAR-5
  GI50: > 46.5 µM (inactive)
OVCAR-8
  GI50: 38.9 µM (inactive)
RPMI-8226
  GI50: 12.6 µM (inactive)
RXF 393
  GI50: 28.3 µM (inactive)
RXF 631
  GI50: 17.5 µM (inactive)
SF-268
  GI50: 29.9 µM (inactive)
SF-295
  GI50: 18.8 µM (inactive)
SF-539
  GI50: 19.5 µM (inactive)
SK-MEL-28
  GI50: > 46.5 µM (inactive)
SK-MEL-2
  GI50: 20.4 µM (inactive)
SK-MEL-5
  GI50: 41.6 µM (inactive)
SK-OV-3
  GI50: > 31.6 µM (inactive)
SN12C
  GI50: 44.1 µM (inactive)
SNB-19
  GI50: 21.9 µM (inactive)
SNB-75
  GI50: 24.5 µM (inactive)
SNB-78
  GI50: 23.1 µM (inactive)
SR
  GI50: 12.2 µM (inactive)
SW-620
  GI50: 24.1 µM (inactive)
TK-10
  GI50: > 46.5 µM (inactive)
U-251
  GI50: 19.9 µM (inactive)
UACC-257
  GI50: 34.8 µM (inactive)
UACC-62
  GI50: 64.7 µM (inactive)
UO-31
  GI50: > 46.5 µM (inactive)
XF498
  GI50: 16 µM (inactive)
